Active and inactive are the calls of the source.
Tests used:
[1] = Counterscreen for IDE inhibitors: Luminescence-based cell-based high throughput dose response assay to identify compounds that are cytotoxic to HEK cells. [Related pubchem assays: 434962 (Primary screen (IDE inhibitors in singlicate)), 449730 (Counterscreen (Cytotoxicity in triplicate)), 435028 (Confirmation (IDE inhibitors in triplicate)) …; format: functional; conditions: HEK293
Insulin-degrading enzyme = biological target: T1, Insulin-degrading enzyme (Homo sapiens, UniProt P14735); experiment: Dose Response: Fluorescence polarization-based cell-based high throughput dose response assay for inhibitors of insulin-degrading enzyme (IDE). [Related pubchem assays: 434962 (Primary screen (IDE inhibitors in singlicate)), 449730 (Counterscreen (Cytotoxicity in triplicate)), 435028 (Confirmation (IDE inhibitors in triplicate)), 434984 (Summary …; format: functional
T1 sequence (P14735 whole entry): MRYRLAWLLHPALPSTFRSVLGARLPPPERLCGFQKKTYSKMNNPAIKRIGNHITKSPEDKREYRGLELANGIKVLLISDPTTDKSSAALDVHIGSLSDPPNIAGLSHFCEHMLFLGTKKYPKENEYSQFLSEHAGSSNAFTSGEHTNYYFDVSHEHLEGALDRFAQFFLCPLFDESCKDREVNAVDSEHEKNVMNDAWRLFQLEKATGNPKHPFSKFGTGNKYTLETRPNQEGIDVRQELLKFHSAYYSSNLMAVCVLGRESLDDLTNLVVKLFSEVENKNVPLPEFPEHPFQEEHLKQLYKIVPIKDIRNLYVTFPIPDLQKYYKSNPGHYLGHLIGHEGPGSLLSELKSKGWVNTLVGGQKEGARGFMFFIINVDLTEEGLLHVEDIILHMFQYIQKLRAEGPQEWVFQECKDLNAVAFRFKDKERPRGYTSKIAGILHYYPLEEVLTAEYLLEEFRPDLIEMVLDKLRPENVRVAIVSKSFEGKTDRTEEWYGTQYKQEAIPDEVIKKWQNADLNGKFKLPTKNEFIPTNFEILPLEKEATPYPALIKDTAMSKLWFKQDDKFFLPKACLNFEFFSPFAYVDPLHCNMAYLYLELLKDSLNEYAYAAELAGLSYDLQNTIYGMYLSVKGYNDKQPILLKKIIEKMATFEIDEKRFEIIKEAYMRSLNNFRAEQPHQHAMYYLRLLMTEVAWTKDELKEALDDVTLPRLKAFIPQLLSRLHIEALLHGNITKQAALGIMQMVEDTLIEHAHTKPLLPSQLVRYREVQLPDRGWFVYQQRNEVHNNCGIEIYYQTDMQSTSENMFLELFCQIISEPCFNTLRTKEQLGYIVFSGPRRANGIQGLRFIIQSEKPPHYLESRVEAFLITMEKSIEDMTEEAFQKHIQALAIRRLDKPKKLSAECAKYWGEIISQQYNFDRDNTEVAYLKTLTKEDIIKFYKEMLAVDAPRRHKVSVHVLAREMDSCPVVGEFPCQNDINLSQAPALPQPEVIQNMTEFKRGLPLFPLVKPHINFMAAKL

[2] = luciferase reporter signal suppression in cells – H4 neuroglioma cells, luminescence, dose response (AID 1990); format: functional, cell-based
[3] = luciferase reporter signal reduction – luminescence, H4-C neuroglioblastoma cells, dose response (AID 2458); format: functional, cell-based;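 note: H4 neuroglioblastoma cells stably carrying a luciferase reporter gene fusion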
cells = format: functional, cell-based
[4] = Luminescence Cell-Based Dose Response HTS to Identify Inhibitors of 5'UTR Stem-Loop Driven Prion Protein mRNA Translation in H4 Neuroglioblastoma Cells. [Related pubchem assays: 1827 (Project Summary), 1813 (Primary HTS)]; format: functional
[5] = biological target: T2, Heat shock factor protein 1 (Mus musculus, UniProt P38532); experiment: decrease of HSF1-responsive luciferase luminescence – cell-based, NIH3T3, dose retest, confirmation (AID 2382); format: functional;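 note: NIH3T3 fibroblasts with HSF1-driven luciferase reporter stressed by proteasome inhibitor MG132; luminescence from HSF1-driven luciferase expression after 8 hours of MG132 stress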
T2 sequence (P38532 whole entry): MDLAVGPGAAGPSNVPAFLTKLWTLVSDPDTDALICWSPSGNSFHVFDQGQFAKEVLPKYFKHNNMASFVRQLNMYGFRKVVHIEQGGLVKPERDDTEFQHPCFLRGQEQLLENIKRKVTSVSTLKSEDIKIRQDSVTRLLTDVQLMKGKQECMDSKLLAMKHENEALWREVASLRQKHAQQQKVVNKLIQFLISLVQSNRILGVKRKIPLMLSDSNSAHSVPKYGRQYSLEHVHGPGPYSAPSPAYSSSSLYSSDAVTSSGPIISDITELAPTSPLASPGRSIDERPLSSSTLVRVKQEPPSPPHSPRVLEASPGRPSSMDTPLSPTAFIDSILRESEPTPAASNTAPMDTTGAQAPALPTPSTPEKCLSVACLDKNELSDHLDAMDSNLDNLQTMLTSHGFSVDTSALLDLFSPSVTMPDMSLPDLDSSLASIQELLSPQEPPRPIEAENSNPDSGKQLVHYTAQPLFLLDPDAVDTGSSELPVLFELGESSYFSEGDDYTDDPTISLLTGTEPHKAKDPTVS

[6] = alpha-synuclein stem-loop luciferase translation blockers – H4 neuroglioma cells, luminescence, confirmation (AID 1988); format: functional, cell-based
[7] = biological target: Luciferin 4-monooxygenase (Photinus pyralis, UniProt P08659); experiment: inhibition of purified Photinus pyralis luciferase – biochemical, luminescence, dose response (AID 1891)
Sequence of Luciferin 4-monooxygenase (P08659 whole entry): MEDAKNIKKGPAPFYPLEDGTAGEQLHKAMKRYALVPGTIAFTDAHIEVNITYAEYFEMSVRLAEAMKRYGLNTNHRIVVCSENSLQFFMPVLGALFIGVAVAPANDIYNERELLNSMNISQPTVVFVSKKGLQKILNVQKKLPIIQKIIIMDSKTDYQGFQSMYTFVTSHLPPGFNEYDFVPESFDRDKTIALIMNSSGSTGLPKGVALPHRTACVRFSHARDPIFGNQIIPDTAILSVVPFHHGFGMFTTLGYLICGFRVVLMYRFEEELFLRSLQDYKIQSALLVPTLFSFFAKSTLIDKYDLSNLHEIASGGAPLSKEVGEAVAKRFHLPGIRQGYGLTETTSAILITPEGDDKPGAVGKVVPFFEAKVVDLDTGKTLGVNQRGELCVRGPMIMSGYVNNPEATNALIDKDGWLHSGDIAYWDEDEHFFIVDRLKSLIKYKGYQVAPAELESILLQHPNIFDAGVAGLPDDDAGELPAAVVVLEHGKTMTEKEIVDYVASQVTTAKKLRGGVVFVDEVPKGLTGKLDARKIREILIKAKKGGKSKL

[8] = Luminescence Cell-Based Dose Confirmation HTS to Identify Inhibitors of Platelet Dense Granule Release. [Related pubchem assays: 1663 (Primary HTS), 1678 (Summary of Project)]; format: functional
[9] = Luminescence-based counterscreen assay for KLF5 inhibitors: dose response cell-based high throughput screening assay to identify cytotoxic compounds using the IEC-6 intestinal epithelial cell line. [Related pubchem assays: 1700 (Primary screen.), 1834 (Confirmation screen.), 1858 (Summary AID.), 1905 (Counterscreen.)]; format: functional
[10] = alpha-synuclein stem-loop translation blockers – luminescence, H4 neuroglioblastoma cells, dose confirmation, confirmation (AID 2454); format: functional, cell-based;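 note: H4 neuroglioblastoma cells carrying an alpha-synuclein 5'UTR luciferase reporter; potency for inhibition of the luciferase signal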
Vero [11] = experiment: cells; format: functional, cell-based; conditions: Chlorocebus sabaeus
Vero [12] = experiment: cells; format: functional; conditions: Chlorocebus sabaeus
[13] = reduction of Shn3 3'UTR-driven luciferase in osteoblasts – cell-based, Clone20 osteoblasts, firefly luciferase, cherry-picked, dose response (AID 624132); format: functional;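 note: firefly luciferase luminescence from reporter carrying the Shn3 3'UTR in osteoblasts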
[14] = loss of viability in HepG2 cells – cell-based, CellTiter-Glo, cherry-picked, cytotoxicity control for Shn3 inhibitor project, dose response (AID 624134); format: functional
Bcl-2-like protein 10 = biological target: T3, Bcl-2-like protein 10 (Homo sapiens, UniProt Q9HD36); experiment: Concentration-response of Bcl-B inhibitors by biochemical FP with TR3 (AID 1243); format: functional
T3 sequence (Q9HD36 whole entry): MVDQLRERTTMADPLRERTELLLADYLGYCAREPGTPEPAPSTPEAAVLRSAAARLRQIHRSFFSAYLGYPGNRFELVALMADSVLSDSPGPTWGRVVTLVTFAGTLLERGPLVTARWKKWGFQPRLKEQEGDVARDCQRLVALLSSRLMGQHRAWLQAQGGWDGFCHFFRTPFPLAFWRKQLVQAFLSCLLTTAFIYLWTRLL

Aminopeptidase N = biological target: T4, Aminopeptidase N (Plasmodium falciparum FcB1/Columbia, UniProt O96935); experiment: malaria alanyl aminopeptidase activity blockers – biochemical, fluorogenic H-Leu-NHMec substrate, 1536-well (AID 1445); parameters: species or system Plasmodium falciparum 3D7, 3D7
T4 sequence (O96935 whole entry): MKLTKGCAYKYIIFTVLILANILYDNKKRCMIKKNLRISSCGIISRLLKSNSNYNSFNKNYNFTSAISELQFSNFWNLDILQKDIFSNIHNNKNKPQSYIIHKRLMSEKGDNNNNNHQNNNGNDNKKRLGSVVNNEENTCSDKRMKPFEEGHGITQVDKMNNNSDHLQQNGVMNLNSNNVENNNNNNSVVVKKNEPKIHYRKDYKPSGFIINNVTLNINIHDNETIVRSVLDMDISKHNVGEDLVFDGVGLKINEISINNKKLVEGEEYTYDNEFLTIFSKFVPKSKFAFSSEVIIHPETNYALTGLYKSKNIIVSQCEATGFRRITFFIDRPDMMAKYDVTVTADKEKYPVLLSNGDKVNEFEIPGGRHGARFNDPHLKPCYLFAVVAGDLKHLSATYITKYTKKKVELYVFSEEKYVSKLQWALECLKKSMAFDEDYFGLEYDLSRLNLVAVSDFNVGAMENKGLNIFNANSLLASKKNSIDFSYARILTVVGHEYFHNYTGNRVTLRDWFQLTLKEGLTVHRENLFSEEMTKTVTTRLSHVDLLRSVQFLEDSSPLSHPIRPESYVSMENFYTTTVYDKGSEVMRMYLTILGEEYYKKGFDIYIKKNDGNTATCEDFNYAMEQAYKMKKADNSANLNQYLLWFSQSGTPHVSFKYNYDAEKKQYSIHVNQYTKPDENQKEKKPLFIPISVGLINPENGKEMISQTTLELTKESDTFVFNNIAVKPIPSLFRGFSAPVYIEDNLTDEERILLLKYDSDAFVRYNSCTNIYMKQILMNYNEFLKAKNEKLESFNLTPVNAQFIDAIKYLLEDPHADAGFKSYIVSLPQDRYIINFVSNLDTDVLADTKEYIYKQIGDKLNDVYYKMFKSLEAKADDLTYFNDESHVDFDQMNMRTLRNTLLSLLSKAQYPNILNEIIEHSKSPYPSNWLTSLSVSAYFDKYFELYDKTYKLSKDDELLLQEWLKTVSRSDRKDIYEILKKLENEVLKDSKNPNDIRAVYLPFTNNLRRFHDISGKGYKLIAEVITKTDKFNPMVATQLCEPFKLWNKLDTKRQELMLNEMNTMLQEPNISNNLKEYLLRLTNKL

[15] = antiviral protection against BTV-induced cell death – arbovirus, BSR cells, confirmation (AID 1250); format: functional;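 note: protection from viral cytopathic effect measured as cell viability by ATP luminescence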
[16] = biological target: Lysosomal acid glucosylceramidase (Homo sapiens, UniProt P04062); experiment: Dose response cell-based high throughput screening assay to identify enhancers of beta-glucosidase activity. [Related pubchem assays: 784 ]; format: functional
Sequence of Lysosomal acid glucosylceramidase (P04062 whole entry): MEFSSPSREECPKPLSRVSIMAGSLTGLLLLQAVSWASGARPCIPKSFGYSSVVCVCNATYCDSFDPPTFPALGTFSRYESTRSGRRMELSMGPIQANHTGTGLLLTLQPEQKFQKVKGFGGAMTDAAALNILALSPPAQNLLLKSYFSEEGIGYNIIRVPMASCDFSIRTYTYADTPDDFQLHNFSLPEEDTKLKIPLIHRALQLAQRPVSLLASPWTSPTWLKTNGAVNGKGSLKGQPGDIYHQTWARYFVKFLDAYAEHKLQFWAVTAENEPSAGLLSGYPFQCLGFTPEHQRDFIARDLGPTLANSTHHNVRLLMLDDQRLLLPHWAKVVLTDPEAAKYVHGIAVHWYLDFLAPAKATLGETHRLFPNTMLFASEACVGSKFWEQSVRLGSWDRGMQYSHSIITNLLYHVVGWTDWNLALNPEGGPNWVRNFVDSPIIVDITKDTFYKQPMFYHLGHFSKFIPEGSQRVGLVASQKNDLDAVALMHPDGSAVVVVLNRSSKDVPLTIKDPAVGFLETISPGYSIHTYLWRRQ

Cc1cccc(N2CCN(C(=O)c3cccc(N4C(=O)C5CC=CC(C)C5C4=O)c3)CC2)c1C (stereo not given)
IC50 [1]: 23.8 µM (not active) | IC50 (Insulin-degrading enzyme): 4 µM (active)

CN1CCN(c2ccc(-c3ccc4ccccc4n3)cc2)CC1
EC50 [2]: < 0.195 µM (active) | EC50 [3]: 0.134 µM (active) | EC50 (cells): 0.123 µM (active) | EC50 [4]: < 0.1 µM (active) | EC50 [5]: < 0.16 µM (active) | EC50 [6]: < 0.1 µM (active) | EC50 [7]: 0.953 µM (active) | EC50 [8]: 1.66 µM (active) | IC50 [9]: 26.6 µM (not active) | EC50 [10]: 0.039 µM (active) | IC50 (Vero [11]): > 25 µM (active) | CC50 (Vero [12]): > 25 µM (active) | AC50 [13]: 2.73 µM (active) | AC50 [14]: 22.6 µM (active)

C(=N\c1ccc(/N=C/c2ccccn2)cc1)/c1ccccn1
EC50 (Bcl-2-like protein 10): 4.39 µM (active)

O=C(Nc1scc(-c2cccs2)c1C(=O)O)c1cccs1
IC50 (Aminopeptidase N): 49.2 µM (active) | IC50 [15]: 24 µM (active)

O=C1Nc2ccccc2C(O)(C(=O)NC2CC2)N1c1ccc(Cl)c(Cl)c1 (stereo not given)
EC50 [16]: > 50 µM (not active)

Reference: ChEMBL document CHEMBL1201862, “PubChem BioAssay data set” (2004)
